# Assays:
# OATP2B1 [1] = target: T1, OATP2B1 (Homo sapiens, UniProt O94956); conditions: read-out: IC50, reduction of influx of substrates of OATP2B1; cited from earlier work
# T1 sequence (O94956 1-709): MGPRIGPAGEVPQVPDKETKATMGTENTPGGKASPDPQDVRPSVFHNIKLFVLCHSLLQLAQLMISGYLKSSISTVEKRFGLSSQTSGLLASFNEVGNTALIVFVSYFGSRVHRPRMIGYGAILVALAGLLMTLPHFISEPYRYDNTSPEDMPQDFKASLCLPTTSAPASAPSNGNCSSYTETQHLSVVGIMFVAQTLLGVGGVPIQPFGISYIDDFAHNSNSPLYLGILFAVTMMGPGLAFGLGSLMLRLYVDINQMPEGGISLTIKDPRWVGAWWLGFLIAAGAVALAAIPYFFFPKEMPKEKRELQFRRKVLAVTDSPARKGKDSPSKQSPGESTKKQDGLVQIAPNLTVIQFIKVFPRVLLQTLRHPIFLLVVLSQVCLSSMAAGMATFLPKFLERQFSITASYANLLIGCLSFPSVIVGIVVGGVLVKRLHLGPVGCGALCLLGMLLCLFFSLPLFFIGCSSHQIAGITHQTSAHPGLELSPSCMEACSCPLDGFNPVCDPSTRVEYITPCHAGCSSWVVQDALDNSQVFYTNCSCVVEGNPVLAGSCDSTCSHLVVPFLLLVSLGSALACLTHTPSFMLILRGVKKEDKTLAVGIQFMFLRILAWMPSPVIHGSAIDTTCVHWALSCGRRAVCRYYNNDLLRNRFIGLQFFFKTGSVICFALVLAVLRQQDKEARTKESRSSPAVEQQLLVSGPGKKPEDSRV
# P-glycoprotein (Pgp) = P-glycoprotein (Pgp) (Homo sapiens, UniProt P08183); assay: Caco-2 transport of CA with Pgp inhibitor GF120918; assay type: in vitro ADME; conditions: 2 μM GF120918
# OATP2B1 [2] = target: T1, OATP2B1; assay: Caco-2 transport of CA with OATP2B1 inhibitor baicalin; assay type: in vitro ADME; conditions: 6 μM baicalin
# Chain of P-glycoprotein (Pgp) (P08183 whole entry): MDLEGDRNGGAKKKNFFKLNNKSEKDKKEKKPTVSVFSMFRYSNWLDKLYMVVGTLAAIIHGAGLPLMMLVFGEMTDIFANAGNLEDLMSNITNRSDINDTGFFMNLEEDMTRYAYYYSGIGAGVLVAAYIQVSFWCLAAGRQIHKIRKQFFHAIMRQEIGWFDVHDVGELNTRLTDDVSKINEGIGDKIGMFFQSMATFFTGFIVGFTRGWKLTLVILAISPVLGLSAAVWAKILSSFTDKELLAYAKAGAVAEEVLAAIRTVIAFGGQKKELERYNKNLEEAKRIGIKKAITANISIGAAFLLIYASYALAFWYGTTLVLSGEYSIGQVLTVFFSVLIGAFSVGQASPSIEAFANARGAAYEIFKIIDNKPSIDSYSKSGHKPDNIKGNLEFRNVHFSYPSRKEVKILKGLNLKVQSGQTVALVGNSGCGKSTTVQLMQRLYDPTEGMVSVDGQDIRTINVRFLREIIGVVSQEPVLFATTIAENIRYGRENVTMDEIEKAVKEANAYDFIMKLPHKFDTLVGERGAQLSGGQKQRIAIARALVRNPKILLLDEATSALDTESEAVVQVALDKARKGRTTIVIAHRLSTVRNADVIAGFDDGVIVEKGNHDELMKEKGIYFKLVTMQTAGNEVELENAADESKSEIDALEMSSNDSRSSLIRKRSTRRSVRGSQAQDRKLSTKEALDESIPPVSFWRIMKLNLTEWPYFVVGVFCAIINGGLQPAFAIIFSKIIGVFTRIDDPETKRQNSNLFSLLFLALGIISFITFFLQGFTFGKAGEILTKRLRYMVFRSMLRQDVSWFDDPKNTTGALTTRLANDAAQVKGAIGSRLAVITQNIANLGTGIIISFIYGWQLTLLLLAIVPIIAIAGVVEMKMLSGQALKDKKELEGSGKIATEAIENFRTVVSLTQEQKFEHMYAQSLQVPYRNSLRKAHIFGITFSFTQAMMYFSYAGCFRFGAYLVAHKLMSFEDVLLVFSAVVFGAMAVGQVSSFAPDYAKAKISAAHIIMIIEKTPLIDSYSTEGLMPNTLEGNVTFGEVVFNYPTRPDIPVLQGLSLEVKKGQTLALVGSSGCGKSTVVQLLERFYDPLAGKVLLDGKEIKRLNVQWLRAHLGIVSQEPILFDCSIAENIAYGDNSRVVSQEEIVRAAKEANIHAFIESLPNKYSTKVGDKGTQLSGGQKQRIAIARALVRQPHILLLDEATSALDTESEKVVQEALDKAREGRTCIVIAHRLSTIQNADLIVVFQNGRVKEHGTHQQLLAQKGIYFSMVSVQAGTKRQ
Compound,IC50 (OATP2B1 [1]) [µM],Decrease of Papp B–A after GF120918 treatment (P-glycoprotein (Pgp)) [%],Decrease of Papp B–A after baicalin treatment (OATP2B1 [2]) [%]
O=C(O)[C@H]1O[C@@H](Oc2cc3oc(-c4ccccc4)cc(=O)c3c(O)c2O)[C@H](O)[C@@H](O)[C@@H]1O [baicalin],5.6 ± 3.2,,
Chicoric acid [CA],,62,63

# — paper PMC9304723 (Heliyon, 2022)
